Measured values taken from patent publication US12622918B2, “Formulations and dosages for administering a compound that inhibits MCL1 protein” (Amgen Inc., priority 2019, dated 2026).

What was measured:
rat = experiment: 28-day GLP rat IV infusion toxicology study; assay type: in vivo
From the text: The doses selected for the 28-day IV rat and dog toxicology studies were intended to characterize the toxicity of the compound of Formula I and provide data to support a starting dose in the first-in-human (FIH) study. An IV route of administration and a dosing schedule of 2 days on/5 days off was used to support the anticipated clinical route and dosing schedule.

Rabbit MCL1 = Rabbit MCL1 (Oryctolagus cuniculus, UniProt G1T2Q0); experiment: Cell-free TR-FRET BIM-binding assay, Rabbit MCL1; conditions: BIM-binding partner Rabbit MCL1; n = 3
Rabbit MCL1, sequence (G1T2Q0 1-352): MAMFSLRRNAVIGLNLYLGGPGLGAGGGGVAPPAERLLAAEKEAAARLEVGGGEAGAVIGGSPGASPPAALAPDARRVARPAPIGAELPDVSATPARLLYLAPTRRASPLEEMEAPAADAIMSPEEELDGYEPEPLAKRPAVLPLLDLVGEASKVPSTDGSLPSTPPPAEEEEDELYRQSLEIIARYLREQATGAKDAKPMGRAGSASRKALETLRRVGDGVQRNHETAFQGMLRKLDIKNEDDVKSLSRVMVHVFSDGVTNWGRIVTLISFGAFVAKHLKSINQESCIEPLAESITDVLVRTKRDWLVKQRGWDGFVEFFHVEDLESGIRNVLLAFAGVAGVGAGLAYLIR

[1] = test system: OPM2-Luc tumor xenografts; experiment: OPM2-Luc xenograft efficacy, intermittent dosing; assay type: in vivo; conditions: for animals tumor free: day 26
Description: OPM2-Luc cells (5×10^6) were implanted subcutaneously into female athymic nude mice. […] With all tested doses and schedules, dose-dependent TGI was observed (FIG. 5). […] Six of 10 animals in the 60 mg/kg 5 days on/2 days off group and 10 of 10 animals in the once daily group were tumor free on day 26.

U26681 = experiment: Cell viability (CellTiterGlo), U26681; assay type: cell-based; conditions: U26681, Multiple myeloma; 24 hours; 10% FBS; read-out: AMS 176 IC50
[2] = From the text: Nonclinical safety studies on the compound of Formula I consisted of an exploratory 14-day dog IV toxicology study, Good Laboratory Practices (GLP) 28-day rat and dog IV toxicology studies, in vitro exploratory genotoxicity studies (GLP human ether-á-go-go related gene [hERG] and non-GLP isolated rabbit heart) to characterize potential cardiovascular effects. The doses selected for the 28-day IV rat and dog toxicology studies were intended to characterize the toxicity of the compound of Formula I and provide data to support a starting dose in the first-in-human (FIH) study. An IV route of administration and a dosing schedule of 2 days on/5 days off was used to support the anticipated clinical route and dosing schedule. In a 28-day GLP rat IV infusion toxicology study, the severely toxic dose in 10% of animals (STD10) was 60 mg/kg based on mortality at 120 mg/kg and in a 28-day GLP IV toxicology study in dogs, the highest-nonseverely-toxic dose (HNSTD) was 10 mg/kg based on mortality at 20 mg/kg.
Karoas620 = experiment: Cell viability (CellTiterGlo), Karoas620; assay type: cell-based; conditions: Karoas620, Multiple myeloma; 24 hours; 10% FBS; read-out: AMS 176 IC50
HEL 92.1.7 = experiment: Cell viability (CellTiterGlo), HEL 92.1.7; assay type: cell-based; conditions: Homo sapiens; HEL 92.1.7, AML; 24 hours; 10% FBS; read-out: AMS 176 IC50
KMS-12-PE = experiment: Cell viability (CellTiterGlo), KMS-12-PE; assay type: cell-based; conditions: Homo sapiens, Multiple myeloma, 24 hours, 10% FBS, read-out: AMS 176 IC50
TF-1 = experiment: Cell viability (CellTiterGlo), TF-1; assay type: cell-based; conditions: Homo sapiens; TF-1, AML; 24 hours; 10% FBS; read-out: AMS 176 IC50
BAK = BAK activation in OPM2-Luc tumor xenografts (PD); assay type: in vivo, mice; conditions: for BAK activation: 2-, vs vehicle p<0.05
Description: (§1) Activation of the pro-apoptotic pore-forming protein BAK and proteolytic cleavage of the cysteine-aspartic acid protease caspase 3 (hallmarks of the induction of apoptosis) in MCL1-dependent OPM2-Luc multiple myeloma tumor cells served as a PD assay. Female athymic nude mice were injected with 5×10^6 cells in 0.1 mL subcutaneously (SC). […] Mice were euthanized 2, 4, 8, 12, and 24 hours postdose (n=3/group), terminal plasma samples were collected for PK analysis, and tumors were halved and snap frozen in liquid nitrogen for PK and molecular analyses. Tumor lysates were prepared for evaluation of BAK activation and caspase 3 cleavage using an electrochemiluminescence immunoassay. Tumors treated with vehicle (25% HPβCD, pH 8) served as a negative control and indicated the baseline level of apoptosis.

[3] = test system: OPM2 multiple myeloma tumor cell line; experiment: Viability of OPM2 cells; assay type: cell-based; conditions: Homo sapiens
Pharmacokinetics in dogs = assay type: in vivo
From the text: The pharmacokinetics (PK) of the compound of Formula I after single intravenous (IV) or oral administration were characterized in male CD1 mice, female athymic nude mice, male Nu/Nu mice, male Sprague Dawley rats, male beagle dogs, and male cynomolgus monkeys. The clearance (CL) of the compound was low in mice, rats, dogs, and monkeys relative to their hepatic blood flow. Volume of distribution at steady state (Vss) in mice, rats, dogs, and monkeys was variable across the species.

[4] = Plasma concentration in OPM2-Luc tumor-bearing mice; assay type: in vivo; conditions: 60 mg/kg oral gavage; female athymic nude mice
Description: as §1

rat blood = experiment: In vitro hemolysis of whole blood, rat; conditions: 0.048, 0.12, 0.24, 1.2, and 2.4 mg/mL, vehicles containing hydroxypropyl-β-cyclodextrin
U937 = experiment: Cell viability (CellTiterGlo), U937; assay type: cell-based; conditions: Homo sapiens, U-937; U937, NHL; 24 hours; 10% FBS; read-out: AMS 176 IC50
[5] = test system: subjects with relapsed/refractory multiple myeloma; experiment: Phase 1 FIH study, multiple myeloma part 1b (QW); assay type: in vivo, human
Description: In part 1a, subjects were enrolled across 8 cohorts, with doses ranging from 30 to 240 mg/m^2 QD2. In part 1b, subjects were enrolled across 2 cohorts, with doses of 120/180-mg/m^2 or 120/240-mg/m^2.

Monkey MCL1 = Monkey MCL1 (Macaca fascicularis, UniProt A0A2K5W0Y7); experiment: Cell-free TR-FRET BIM-binding assay, Monkey MCL1; conditions: read-out: IC50 (Mean ± SD) of AMG 176 With Respect to Binding; BIM-binding partner Monkey MCL1; n = 3
Monkey MCL1, sequence (A0A2K5W0Y7 1-346): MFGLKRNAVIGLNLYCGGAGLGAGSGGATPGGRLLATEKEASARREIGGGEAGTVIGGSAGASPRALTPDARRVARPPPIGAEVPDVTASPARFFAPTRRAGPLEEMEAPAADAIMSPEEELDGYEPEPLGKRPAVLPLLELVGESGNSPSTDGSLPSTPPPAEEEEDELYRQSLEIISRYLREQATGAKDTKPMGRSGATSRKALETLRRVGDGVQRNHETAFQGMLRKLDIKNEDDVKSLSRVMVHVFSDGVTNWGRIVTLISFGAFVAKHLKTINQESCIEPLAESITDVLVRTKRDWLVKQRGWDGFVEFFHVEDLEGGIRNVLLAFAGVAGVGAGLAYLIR

## CO[C@H]1/C=C/C[C@H](C)[C@@H](C)S(=O)(=O)NC(=O)c2ccc3c(c2)N(C[C@@H]2CC[C@H]21)C[C@@]1(CCCc2cc(Cl)ccc21)CO3 [AMG 176]
rat
  finding related to morbidity and mortality: mucosal epithelial degeneration in the small and large intestines
rat; IV infusion, 28-day
  dose with mortality: 120 mg/kg
rat; IV infusion, 2 days on/5 days off, 28-day
  severely toxic dose in 10% of animals (STD10): 60 mg/kg
Rabbit MCL1
  IC50: 0.191 nM
[1]; 30 mg/kg 2 days on/5 days off
  TGI: 54%
[1]; 30 mg/kg 5 days on/2 days off
  TGI: 85%
[1]; 30 mg/kg and 60 mg/kg, two days on/5 days off and 5 days on/2 days off, summary statement
  effect on growth of established OPM2-Luc tumors: significantly inhibited the growth
[1]; 30 mg/kg once daily oral gavage
  TGI: 84%
[1]; 60 mg/kg 2 days on/5 days off
  tumor regression: 21%
[1]; 60 mg/kg 5 days on/2 days off
  tumor regression: 87%
  animals tumor free: Six of 10
[1]; 60 mg/kg once daily
  tumor regression: 100%
  animals tumor free: 10 of 10
[1]; 30 or 60 mg/kg, all schedules
  overt toxicity by body weight and body score assessment: No evidence of overt toxicity
U26681
  IC50: 8220 nM
[2]
  genotoxicity: not mutagenic or clastogenic
Karoas620
  IC50: 487 nM
HEL 92.1.7
  IC50: 5990 nM
KMS-12-PE
  IC50: 131 nM
TF-1
  IC50: 2090 nM
BAK; 30 mg/kg oral gavage, 4-, and 8-hour time points
  BAK activation: Statistically significant BAK activation
BAK; 60 mg/kg oral gavage
  time point of greatest BAK activation: 4 h
BAK; 60 mg/kg oral gavage, 4-, 8-, and 12-hour time points
  BAK activation: Statistically significant BAK activation
BAK; OPM2-Luc tumor xenografts, summary statement
  induction of multiple markers of apoptosis, including BAK activation and caspase 3 cleavage: dose-dependent induction
[3]; OPM-2, growth medium containing 5% human serum
  IC50: 703 nM
[3]; OPM-2, growth medium containing 10% fetal bovine serum
  IC50: 236 nM
[3]; OPM-2, serum-free growth medium
  IC50: 15.5 nM
Pharmacokinetics in dogs
  mean terminal elimination half-life (t1/2,z): 10.8 h
[4]
  time point of peak AMG 176 plasma concentration: 4 h
Rat blood
  hemolysis of whole blood: cased hemolysis
U937
  IC50: 474 nM
[5]; MM part 1b
  Grade 3 adverse events, subjects: 83%
  adverse events considered related to AMG 176, subjects: 83 %/a
  adverse events leading to discontinuation of investigational product: no adverse event led to discontinuation
  fatal adverse events: no fatal adverse events occurred
  grade 4 adverse events, subjects: 17%
  hypertension of grade 3 or higher: 33%
  neutropenia of grade 3 or higher: 67%
  serious adverse events: No serious adverse events were reported
[5]; MM part 1b QW, 6 subjects
  adverse events, subjects: 83%
[5]; MM part 1b, any grade
  diarrhea, subjects: 33%
  fatigue, subjects: 33%
  hypertension, subjects: 33%
  nausea, subjects: 50%
  neutropenia, subjects: 67%
[5]; MM part 1b, 6 subjects, preliminary
  exposures (Cmax and AUC) versus dose: generally increased with increasing doses
Monkey MCL1
  IC50: 0.182 nM
